According to patent US12552796B2, “EED inhibitor, and preparation method therefor and use thereof” (SHANGHAITECH UNIVERSITY, priority 2019, dated 2026):
Read-outs that look alike come from different tables or passages of the source.

What was measured:
[1] = test system: cellular H3K27 methylation; test: Cellular H3K27 methylation assay (Western blot of H3K27me3 in HeLa cells); assay type: cell-based; conditions: Homo sapiens, 72 h, read-out: PD IC50
WSU-DLCL2 cells = test: Cell proliferation assay, WSU-DLCL2; assay type: cell-based; conditions: Homo sapiens, WSUDLCL2; WSU-DLCL2 cells, cultured to the 9th day; read-out: Anti-proliferation IC50
Description: Human B-cell non-Hodgkin's lymphoma cells WSU-DLCL2, Karpas422 and Pfeiffer were cultured in cell culture flasks in a sterile incubator with 95% relative humidity and 5% CO2 at 37° C. The medium was RPMI-1640 (Gibco, product No. 31800022) containing 15% fetal bovine serum (FBS, Gibco, product No. 10099141) and 0.1% penicillin/streptomycin solution (P/S). In order to assay the effects of compounds on cell proliferation, cells in exponential growth phase were seeded into a 12-well plate (Nunc, product No. 150628) with 1 mL of medium per well, wherein WSU-DLCL2 and Karpas422 were seeded at a density of 1×10^5 cells/well, and Pfeiffer was seeded at a density of 2×10^5 cells/well. At the same time, different concentrations of compounds were added to the wells that had seeded with cells (6 concentrations were set for each compound at 3-fold serial dilution), and the final concentration of DMSO was 0.1%. After that, the number of viable cells was determined by Vi-CELL (Beckman Coulter) for WSU-DLCL2 and Pfeiffer every 3 days, and for Karpas422 on days 4, 7, and 11, respectively. The cells counted each time were seeded into a new 12-well plate at the same density, and supplemented with fresh medium to 1 mL. Different concentrations of compounds were added at the same time. WSU-DLCL2 and Pfeiffer were cultured to the 9th day, and Karpas422 was cultured to the 14th day. Cell data were collected uniformly, and analyzed with GraphPad prisim5. Dose curves were fitted, and IC50 values of the assay compounds were obtained.

[2] = HeLa cells, 3 days, H3K27me3 level by Western blot

IC50 [1, 2]	SMILES	also measured
0.0543 µM	Fc1ccc2c(c1CNc1ncc(C3CCCO3)c3nncn13)CCO2 (stereo not shown) [HJM-003]	IC50 (WSU-DLCL2 cells): 0.131 µM
0.0446 µM	CCOCCc1cnc(NCc2c(F)ccc3c2CCO3)n2cnnc12 [HJM-010]	IC50 (WSU-DLCL2 cells): 0.0778 µM
0.0338 µM	COCCCc1cnc(NCc2c(F)ccc3c2CCO3)n2cnnc12 [HJM-011]	IC50 (WSU-DLCL2 cells): 0.0863 µM
0.0128 µM	O=C(N1CCC(c2cnc(NCc3c(F)ccc4c3CCO4)n3cnnc23)CC1)C(F)(F)F [HJM-056]	
0.0405 µM	Fc1ccc2c(c1CNc1ncc(C3CCN(CC(F)(F)F)CC3)c3nncn13)CCO2 [HJM-057]	
0.131 µM	OCCN1CCC(c2cnc(NCc3c(F)ccc4c3CCO4)n3cnnc23)CC1 [HJM-058]	
0.0385 µM	Fc1ccc2c(c1CNc1ncc(C3CCN(C4CC4)CC3)c3nncn13)CCO2 [HJM-059]	
0.141 µM	Fc1ccc2c(c1CNc1ncc(C3CCN(C4COC4)CC3)c3nncn13)CCO2 [HJM-060]	
0.363 µM	CS(=O)(=O)Nc1cnc(NCc2c(F)ccc3c2CCO3)n2cnnc12 [HJM-065]	
	Fc1ccc2c(c1CNc1ncc(Nc3ccccc3)c3nncn13)CCO2 [HJM-066]	IC50 ([1]; HeLa): 0.228 µM
0.138 µM	O=C1CCCCN1c1cnc(NCc2c(F)ccc3c2CCO3)n2cnnc12 [HJM-068]	
0.0831 µM	CCC(=O)Nc1cnc(NCc2c(F)ccc3c2CCO3)n2cnnc12 [HJM-070]	
0.0728 µM	CC(C)C(=O)Nc1cnc(NCc2c(F)ccc3c2CCO3)n2cnnc12 [HJM-071]	
0.553 µM	N#CCC(=O)Nc1cnc(NCc2c(F)ccc3c2CCO3)n2cnnc12 [HJM-074]	
0.00636 µM	[2H]C([2H])([2H])N(C(=O)C1CC1)c1cnc(NCc2c(F)ccc3c2CCO3)n2cnnc12 [HJM-076]	
0.0149 µM	[2H]C([2H])(Nc1ncc(N(C)C(=O)C2CC2)c2nncn12)c1c(F)ccc2c1CCO2 [HJM-077]	
0.0121 µM	[2H]C([2H])(Nc1ncc(N(C(=O)C2CC2)C([2H])([2H])[2H])c2nncn12)c1c(F)ccc2c1CCO2 [HJM-078]	
0.0776 µM	CN(C)CC(=O)Nc1cnc(NCc2c(F)ccc3c2CCO3)n2cnnc12 [HJM-081]	
0.0625 µM	COCCN(C)CC(=O)Nc1cnc(NCc2c(F)ccc3c2CCO3)n2cnnc12 [HJM-085]	
0.188 µM	CN1CCOC(C(=O)Nc2cnc(NCc3c(F)ccc4c3CCO4)n3cnnc23)C1 (stereo not shown) [HJM-086]	
0.235 µM	CN1CC(C(=O)Nc2cnc(NCc3c(F)ccc4c3CCO4)n3cnnc23)C1 [HJM-087]	
0.601 µM	COCCN1CC(C(=O)Nc2cnc(NCc3c(F)ccc4c3CCO4)n3cnnc23)C1 [HJM-088]	

IC50 [1, 2]	SMILES	also measured
0.256 µM	O=C(CCc1ccccc1)Nc1cnc(NCc2c(F)ccc3c2CCO3)n2cnnc12 [HJM-089]	
0.198 µM	COc1ccc(C(=O)Nc2cnc(NCc3c(F)ccc4c3CCO4)n3cnnc23)cc1 [HJM-090]	
0.291 µM	COc1ccc(C(=O)Nc2cnc(NCc3c(F)ccc4c3CCO4)n3cnnc23)cn1 [HJM-091]	
0.814 µM	CS(=O)(=O)c1ccc(C(=O)Nc2cnc(NCc3c(F)ccc4c3CCO4)n3cnnc23)cc1 [HJM-093]	
0.223 µM	O=C(Nc1cnc(NCc2c(F)ccc3c2CCO3)n2cnnc12)c1cnco1 [HJM-094]	
0.178 µM	O=C(Nc1cnc(NCc2c(F)ccc3c2CCO3)n2cnnc12)c1ncco1 [HJM-095]	
0.0899 µM	O=C(Nc1cnc(NCc2c(F)ccc3c2CCO3)n2cnnc12)c1ccno1 [HJM-096]	
0.792 µM	CN1CCN(C(=O)Nc2cnc(NCc3c(F)ccc4c3CCO4)n3cnnc23)CC1 [HJM-097]	
0.309 µM	CN(CC1CC1)C(=O)Nc1cnc(NCc2c(F)ccc3c2CCO3)n2cnnc12 [HJM-098]	
1.59 µM	O=C(Nc1cnc(NCc2c(F)ccc3c2CCO3)n2cnnc12)N1CCOCC1 [HJM-099]	
0.0485 µM	Fc1ccc2c(c1CNc1ncc(OC3CC(F)(F)C3)c3nncn13)CCO2 [HJM-107]	
0.126 µM	Fc1ccc2c(c1CNc1ncc(OCC3CC3(F)F)c3nncn13)CCO2 (stereo not shown) [HJM-108]	
0.0247 µM	[2H]C([2H])(Nc1ncc(OCC2COC2)c2nncn12)c1c(F)ccc2c1CCO2 [HJM-109]	
0.0328 µM	[2H]C([2H])(Nc1ncc(OC2CCOCC2)c2nncn12)c1c(F)ccc2c1CCO2 [HJM-110]	
0.0379 µM	[2H]C([2H])(Nc1ncc(OCC2CCOC2)c2nncn12)c1c(F)ccc2c1CCO2 (stereo not shown) [HJM-111]	
0.0294 µM	[2H]C([2H])(Nc1ncc(OC([2H])([2H])C2COC2)c2nncn12)c1c(F)ccc2c1CCO2 [HJM-112]	
0.0597 µM	[2H]C([2H])(Oc1cnc(NCc2c(F)ccc3c2CCO3)n2cnnc12)C1COC1 [HJM-113]	
0.201 µM	O=C(C1CC1)N1CC(Oc2cnc(NCc3c(F)ccc4c3CCO4)n3cnnc23)C1 [HJM-115]	
0.55 µM	CN1CC(COc2cnc(NCc3c(F)ccc4c3CCO4)n3cnnc23)C1 [HJM-116]	
0.792 µM	CNCCOc1cnc(NCc2c(F)ccc3c2CCO3)n2cnnc12 [HJM-118]	
0.264 µM	CN(C)CCOc1cnc(NCc2c(F)ccc3c2CCO3)n2cnnc12 [HJM-119]	
0.494 µM	OC1CCC(Oc2cnc(NCc3c(F)ccc4c3CCO4)n3cnnc23)CC1 (stereo not shown) [HJM-121]	

IC50 [1, 2]	SMILES	also measured
0.0549 µM	COC1CCC(Oc2cnc(NCc3c(F)ccc4c3CCO4)n3cnnc23)CC1 (stereo not shown) [HJM-122]	
0.132 µM	COC1CCC(COc2cnc(NCc3c(F)ccc4c3CCO4)n3cnnc23)CC1 (stereo not shown) [HJM-123]	
0.107 µM	COc1ccc(OCCOc2cnc(NCc3c(F)ccc4c3CCO4)n3cnnc23)cc1 [HJM-127]	
0.062 µM	Fc1ccc2c(c1CNc1ncc(OCCn3cccc3)c3nncn13)CCO2 [HJM-128]	
0.389 µM	Fc1ccc2c(c1CNc1ncc(OCCn3cncn3)c3nncn13)CCO2 [HJM-129]	
0.104 µM	Cc1ccc(COc2cnc(NCc3c(F)ccc4c3CCO4)n3cnnc23)cn1 [HJM-130]	
0.13 µM	Fc1ccc2c(c1CNc1ncc(OCc3cncnc3)c3nncn13)CCO2 [HJM-131]	
0.123 µM	Fc1ccc2c(c1CNc1ncc(OCc3cnccn3)c3nncn13)CCO2 [HJM-132]	
0.0744 µM	CC(Oc1cnc(NCc2c(F)ccc3c2CCO3)n2cnnc12)c1cccnc1 (stereo not shown) [HJM-133]	
0.159 µM	Fc1ccc2c(c1CNc1ncc(OCc3cnco3)c3nncn13)CCO2 [HJM-134]	
0.286 µM	CN1CCC(Oc2cnc(NCc3c(F)ccc4c3CCO4)n3cnnc23)C1=O (stereo not shown) [HJM-135]	
0.394 µM	CN1CC(Oc2cnc(NCc3c(F)ccc4c3CCO4)n3cnnc23)CC1=O (stereo not shown) [HJM-136]	
	Fc1ccc2c(c1CNc1ncc(OCc3ccccc3)c3nncn13)CCO2 [HJM-139]	IC50 ([1]; HeLa): 0.12 µM
0.0397 µM	Fc1ccc2c(c1CNc1ncc(OCc3ccccn3)c3nncn13)CCO2 [HJM-142]	
0.204 µM	Cc1cccc(COc2cnc(NCc3c(F)ccc4c3CCO4)n3cnnc23)n1 [HJM-143]	
0.0717 µM	Fc1ccc2c(c1CNc1ncc(OCCn3ccnc3)c3nncn13)CCO2 [HJM-144]	
0.0953 µM	O=C(NCCOc1cnc(NCc2c(F)ccc3c2CCO3)n2cnnc12)C1CC1 [HJM-147]	
	CN(C)C(=O)COc1cnc(NCc2c(F)ccc3c2CCO3)n2cnnc12 [HJM-149]	IC50 ([1]; HeLa): 0.546 µM
0.0385 µM	Fc1ccc2c(c1CNc1ncc(OC(F)F)c3nncn13)CCO2 [HJM-150]	
	CN(C)C(=O)Oc1cnc(NCc2c(F)ccc3c2CCO3)n2cnnc12 [HJM-151]	IC50 ([1]; HeLa): 0.0911 µM

SMILES	IC50 [1, 2]	also measured
CC(C)Oc1cnc(NCc2c(F)ccc3c2CCO3)n2cnnc12 [HJM-015]	0.0254 µM	IC50 (WSU-DLCL2 cells): 0.115 µM
CC1COCCN1c1cnc(NCc2c(F)ccc3c2CCO3)n2cnnc12 (stereo not shown) [HJM-061]	0.11 µM	
Fc1ccc2c(c1CNc1ncc(N3CCC(F)(F)C3)c3nncn13)CCO2 [HJM-062]	0.445 µM	
COC1CCN(c2cnc(NCc3c(F)ccc4c3CCO4)n3cnnc23)C1 (stereo not shown) [HJM-063]	0.683 µM	
O=C1CCN(c2cnc(NCc3c(F)ccc4c3CCO4)n3cnnc23)CC1 [HJM-064]	0.18 µM	
CC(=O)Nc1cnc(NCc2c(F)ccc3c2CCO3)n2cnnc12 [HJM-069]	0.391 µM	
O=C(CO)Nc1cnc(NCc2c(F)ccc3c2CCO3)n2cnnc12 [HJM-075]	0.69 µM	
CCCN(C(=O)C1CC1)c1cnc(NCc2c(F)ccc3c2CCO3)n2cnnc12 [HJM-080]	0.035 µM	
O=C(Nc1cnc(NCc2c(F)ccc3c2CCO3)n2cnnc12)c1ccccc1F [HJM-092]	0.139 µM	
CC(=O)N1CC(COc2cnc(NCc3c(F)ccc4c3CCO4)n3cnnc23)C1 [HJM-117]	1.3 µM	
O[C@H]1CC[C@H](COc2cnc(NCc3c(F)ccc4c3CCO4)n3cnnc23)CC1 [HJM-125]	0.463 µM	
Fc1ccc2c(c1CNc1ncc(OCCOc3ccccc3)c3nncn13)CCO2 [HJM-126]	0.0921 µM	
Fc1ccc2c(c1CNc1ncc(OCc3cccnc3)c3nncn13)CCO2 [HJM-140]	0.0214 µM	
Fc1ccc2c(c1CNc1ncc(OCc3ccncc3)c3nncn13)CCO2 [HJM-141]	0.0644 µM	
O=C(COc1cnc(NCc2c(F)ccc3c2CCO3)n2cnnc12)C1CC1 [HJM-146]	0.15 µM	
CNC(=O)COc1cnc(NCc2c(F)ccc3c2CCO3)n2cnnc12 [HJM-148]	1.09 µM	
O=C(c1cnc(NCc2c(F)ccc3c2CCO3)n2cnnc12)N1CCC1 [HJM-153]	0.0932 µM	
